In patent US9266844B2 (priority 2012, dated 2016):
“Also recorded” adds a separate entry of the source. Read-outs that look alike come from different tables or passages of the source.

Tests used:
nsp13 [1] = target: T1, nsp13 (Severe acute respiratory syndrome coronavirus, UniProt P0C6X7); assay: biochemical; type: biochemical, SARS-CoV
[2] = target: MoMLV Reverse Transcriptase (Moloney murine leukemia virus, UniProt P03355); type: biochemical
WT-nsp13 = WT-nsp13 (Severe acute respiratory syndrome coronavirus, UniProt P0C6X7); assay: biochemical
dsDNA (31/18-mer) = type: binding
SARS-CoV nsp13 helicase = SARS-CoV nsp13 helicase (Severe acute respiratory syndrome coronavirus, UniProt P0C6X7); assay: biochemical
FMDV 3Dpol = FMDV 3Dpol (Foot-and-mouth disease virus serotype O, UniProt P03305); type: biochemical
FMDV 3Dpol, sequence (P03305 1863-2332 limits assumed): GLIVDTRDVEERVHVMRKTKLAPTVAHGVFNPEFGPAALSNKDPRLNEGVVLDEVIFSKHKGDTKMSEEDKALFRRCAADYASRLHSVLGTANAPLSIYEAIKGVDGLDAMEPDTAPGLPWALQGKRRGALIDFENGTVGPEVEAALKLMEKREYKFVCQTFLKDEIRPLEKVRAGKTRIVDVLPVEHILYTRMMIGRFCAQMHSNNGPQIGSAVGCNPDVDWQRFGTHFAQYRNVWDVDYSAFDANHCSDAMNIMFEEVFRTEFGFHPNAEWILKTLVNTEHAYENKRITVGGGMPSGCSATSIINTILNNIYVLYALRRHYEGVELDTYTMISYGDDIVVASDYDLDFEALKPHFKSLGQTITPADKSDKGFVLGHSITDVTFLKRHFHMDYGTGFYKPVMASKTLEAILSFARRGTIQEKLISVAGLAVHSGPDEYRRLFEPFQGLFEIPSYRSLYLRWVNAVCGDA

nsp13 [3] = target: T1, nsp13; type: biochemical, SARS-CoV
in vitro = details: human
HCV NS3h helicase = HCV NS3h helicase (Hepatitis C virus genotype 1a, UniProt P27958); type: biochemical
HCV NS3h helicase, sequence (P27958 1193-1657 limits assumed): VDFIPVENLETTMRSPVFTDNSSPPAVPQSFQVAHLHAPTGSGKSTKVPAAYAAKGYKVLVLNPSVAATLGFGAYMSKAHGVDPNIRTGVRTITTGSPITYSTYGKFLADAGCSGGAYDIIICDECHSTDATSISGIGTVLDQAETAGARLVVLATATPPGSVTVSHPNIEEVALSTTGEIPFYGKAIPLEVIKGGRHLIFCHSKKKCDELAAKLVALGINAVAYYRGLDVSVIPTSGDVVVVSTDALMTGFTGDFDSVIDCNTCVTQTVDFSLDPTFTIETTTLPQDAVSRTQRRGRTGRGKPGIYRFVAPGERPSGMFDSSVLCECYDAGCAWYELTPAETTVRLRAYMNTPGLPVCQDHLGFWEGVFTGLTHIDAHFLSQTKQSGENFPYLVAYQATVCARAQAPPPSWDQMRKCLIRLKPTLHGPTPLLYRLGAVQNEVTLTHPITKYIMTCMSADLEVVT

SARS-CoV replicon [4] = assay: microbe, parasite or virus in culture; type: cell-based; details: read-out: EC50 Replicon (RT-qPCR)
nsp13 [5] = target: T1, nsp13; type: binding, SARS-CoV
[6] = target: Klenow fragment of E. coli DNA polymerase I (KF) (Escherichia coli, UniProt P00582); type: biochemical
Klenow fragment of E. coli DNA polymerase I (KF), sequence (P00582 324-928): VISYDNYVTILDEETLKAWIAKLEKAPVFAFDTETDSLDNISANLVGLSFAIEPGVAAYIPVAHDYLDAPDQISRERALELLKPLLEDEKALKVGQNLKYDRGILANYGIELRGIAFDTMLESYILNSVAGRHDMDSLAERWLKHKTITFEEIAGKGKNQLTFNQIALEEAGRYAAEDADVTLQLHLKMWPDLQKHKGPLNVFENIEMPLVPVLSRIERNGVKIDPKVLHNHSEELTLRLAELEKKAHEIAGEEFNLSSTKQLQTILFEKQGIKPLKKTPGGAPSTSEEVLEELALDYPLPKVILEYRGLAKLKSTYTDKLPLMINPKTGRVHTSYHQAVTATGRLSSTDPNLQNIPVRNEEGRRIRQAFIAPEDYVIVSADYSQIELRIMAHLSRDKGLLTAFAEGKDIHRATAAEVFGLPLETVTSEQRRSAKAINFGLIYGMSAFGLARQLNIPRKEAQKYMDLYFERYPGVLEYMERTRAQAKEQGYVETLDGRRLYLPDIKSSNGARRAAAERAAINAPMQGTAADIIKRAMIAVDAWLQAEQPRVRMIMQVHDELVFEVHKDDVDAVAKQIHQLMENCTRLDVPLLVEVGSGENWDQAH

[7] = target: Dengue virus NS3 helicase (Dengue virus type 2, UniProt P14340); type: biochemical
Dengue virus NS3 helicase, sequence (P14340 1476-2093 limits assumed): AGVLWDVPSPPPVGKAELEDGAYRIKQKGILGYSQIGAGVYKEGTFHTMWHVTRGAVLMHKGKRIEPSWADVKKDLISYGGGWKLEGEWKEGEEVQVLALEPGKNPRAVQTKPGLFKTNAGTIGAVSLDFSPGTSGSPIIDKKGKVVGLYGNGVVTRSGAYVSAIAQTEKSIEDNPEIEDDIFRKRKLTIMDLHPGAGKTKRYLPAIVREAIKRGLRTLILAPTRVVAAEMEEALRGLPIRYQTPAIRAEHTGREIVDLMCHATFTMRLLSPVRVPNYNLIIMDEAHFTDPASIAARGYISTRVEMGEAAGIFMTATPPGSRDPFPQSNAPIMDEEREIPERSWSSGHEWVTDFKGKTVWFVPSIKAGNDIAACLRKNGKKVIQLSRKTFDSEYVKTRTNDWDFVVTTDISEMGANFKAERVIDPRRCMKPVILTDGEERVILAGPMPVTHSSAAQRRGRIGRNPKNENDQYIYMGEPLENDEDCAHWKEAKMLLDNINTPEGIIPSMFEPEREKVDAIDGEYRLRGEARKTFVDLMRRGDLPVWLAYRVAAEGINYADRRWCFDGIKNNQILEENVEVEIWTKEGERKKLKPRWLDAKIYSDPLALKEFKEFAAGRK

SARS-CoV replicon [8] = type: cell-based
RNA pol II/CMV promoter = type: cell-based

SMILES: C=CCn1c(S)nnc1CSc1ccccc1[N+](=O)[O-] [SSYA10-001, 3-[(2-nitrophenyl)sulfanylmethyl]-4-prop-2-enyl-1H-1,2,4-triazole-5-thione]
- cytostatic effect (cell proliferation) (HEK 293T cells): did not interfere with the proliferation
- cytotoxicity at 250 μM (HEK293T cells): No cytotoxicity was observed
- Ki (nsp13 [1]): 6 ± 1.7 µM
- mode of inhibition with respect to ATP and nucleic acid substrates (nsp13 [1]): non-competitive
- inhibition of MoMLV Reverse Transcriptase [2]: did not cause inhibition
- IC50 (WT-nsp13): 6 µM
- change of pico green fluorescent counts with dsDNA (dsDNA (31/18-mer)): did not change
- IC50 (SARS-CoV nsp13 helicase; IC50 DNA (nsp13 unwinding)): 5.3 ± 2 µM
- IC50 (SARS-CoV nsp13 helicase; IC50 RNA (nsp13 unwinding)): 5.7 ± 2.3 µM
- IC50 (SARS-CoV nsp13 helicase; IC50 SARS-CoV RNA (nsp13 unwinding)): 5.6 ± 0.5 µM
- inhibition at 20 µM (SARS-CoV nsp13 helicase; read-out: inhibition of the helicase activity): ~100%
- inhibition of FMDV 3Dpol polymerase (FMDV 3Dpol): did not cause inhibition
- effect on ATP hydrolysis by nsp13 (nsp13 [3]): did not affect
- CC50 (in vitro): > 250 µM
- inhibition of HCV NS3h helicase activity (HCV NS3h helicase): did not inhibit; also recorded: specific for SARS-CoV helicase
- EC50 (SARS-CoV replicon [4]; Severe acute respiratory syndrome coronavirus, HEK-293T, 48 h): 8.95 µM
- EC50 (SARS-CoV replicon [4]): ~9 µM
- effect on nsp13 binding to DNA (nsp13 [5]): did not affect
- effect on KF polymerization and strand displacement (nucleic acid binding of the substance) [6]: did not prevent
- inhibition of KF polymerase [6]: did not cause inhibition
- inhibition of Dengue virus NS3 helicase activity [7]: specific for SARS-CoV helicase
- effect on SARS-CoV replication (RNase protection assay) (SARS-CoV replicon [8]): interfered with SARS-CoV replication
- amount of RNA synthesized in NRC-transfected cells with vs without compound (RNA pol II/CMV promoter): No difference was observed
